Reference: patent US7423015B1, “Antihelminthic drugs as a treatment for hyperproliferative diseases” (Board of Regents, The University of Texas System, priority 2001, dated 2008)
Read-outs that look alike come from different tables or passages of the source.

Assays:
Saos-2 = assay: Cell viability, trypan blue cell count assay; type: cell-based; settings: Homo sapiens, Saos-2 (osteosarcoma, p53 deleted), 100% = untreated cells
H596 [1] = assay: Proliferation assay, 50% growth inhibitory concentration; type: cell-based; settings: Homo sapiens, NCI-H596, 24 h; H596, p53 mutated; after 1 day of exposure
Experimental: (§1) All cell lines were grown in RPMI 1640 medium supplemented with 5% fetal bovine serum and 5% CO2. All experiments were done when the cells were 70% confluent. For cell growth measurements, 5×10^4 cells were plated in each well of six-well plates. Control and BZ-treated (0.05 μg/ml) cells were trypsinized and counted using a hemocytometer. Experiments were done in triplicate and the mean and standard deviation were determined by standard methods.
(§2) Studies to determine the IC50 for fenbendazole and mebendazole were performed on a panel of six different human cancer cell lines: two carrying the wild-type p53 gene and actively expressing the p53 protein, (H460 and A549); one marked by homozymes deletion of the p53 gene and lacking p53 gene expression (H358); two expressing mutant p53 (H322 and H596); and one in which wild-type p53 is inactivated by human papilloma virus E6 protein. […] A dose of 166 nM (˜[…]) was chosen for these studies because it had been shown previously that this concentration was sufficient to induce wild-type p53 after 24 h of treatment.

H460 [2] = assay: as above; type: cell-based; settings: Homo sapiens, NCI-H460, 24 h; H460, p53 positive; inhibit growth by 50% after 1 day of exposure
Experimental: as §1, §2

H322 = assay: as above; type: cell-based; settings: Homo sapiens, NCI-H322, 24 h; H322, p53 mutated; after 1 day of exposure
Experimental: as §1, §2

A549 = assay: as above; type: cell-based; settings: Homo sapiens, 24 h; A549, p53 positive; after 1 day of exposure
Experimental: as §1, §2

HeLa (p53 inactivated) = assay: as above; type: cell-based; settings: Homo sapiens, 24 h, after 1 day of exposure
Experimental: as §1, §2

H358 [3] = assay: as above; type: cell-based; settings: Homo sapiens, NCI-H358, 24 h; H358, p53 deleted; after 1 day of exposure
Experimental: as §1, §2

p53 protein = p53 protein stability, pulse-chase with cycloheximide in H460; type: cell-based, human
Experimental: Cells were treated with 0.05 μg/ml fenbendazole or mebendazole for 24 h. After this, control (mock-treated) and drug-treated H460 cells were incubated with 10 μg/ml cycloheximide in drug-free medium for different times and then processed to obtain total cell extracts. Finally, samples were denatured by boiling them in SDS-loading buffer (100 mM Tris, pH 6.8; 2% SDS; 0.1% bromphenol blue; 10% glycerol; 25 μM β-mercaptoethanol) and loaded onto a 10% SDS-polyacrylamide gel. Blots were probed with anti-p53 monoclonal antibody B p53-12 (Santa Cruz Biotechnology, Inc.) and anti-actin monoclonal antibody (Amersham). The immunocomplexes were detected using the Enhanced Chemiluminescence kit according to the manufacturer's directions as described above. The intensities of the bands were quantitated with a PhosphoImager using ImageQuant™ Software (Molecular Dynamics, Sunnyvale, Calif.).
H460 cells were treated with 0.05 μg/ml FZ for 24 hr, and then both untreated control and treated cells were washed with PBS and treated with 24 μg/ml cyclohexamide. After that, cells were harvested at different times. The total cell protein was extracted and analyzed on a 10% polyacrylamide-gel, followed by Western blot analysis using p53 and actin monoclonal antibodies. […]
Data from the pulse-chase experiments were quantitated with a PhosphoImager using ImageQuant™ software. […]

H596 [4] = assay: Cell viability, trypan blue cell count assay; type: cell-based; settings: Homo sapiens
Experimental: as §1
(§3) To further investigate the relationship between the induction of functional p53 and the subsequent apoptosis mediated by these drugs, the inventors posited that if BZs require wild-type p53 in order to exert their effect, then fenbendazole and mebendazole would not be cytotoxic to the many tumor lines producing a mutated p53 protein. To investigate this possibility, human cell lines derived from NSCLC origins of differing p53 status were further analyzed by a 5-day cell growth assay. The cells were plated onto a six-well plate, and the viability of the cells was determined by trypan blue exclusion. Cells were counted on a hemocytometer. The values shown are the means ±standard deviation of triplicate samples. Duplicate experiments gave similar results. H322 is a human lung adenocarcinoma line that produces a mutant p53 protein. […] However, fenbendazole and mebendazole induced nuclear accumulation of p53 only in the H460 cell line, which carries wild-type p53 genes. […] Cells were exposed to FZ (filled bar) or MZ (hatched bar) for 24 hr. A concentration of 0.05 μg/ml FZ and MZ was used. An immunoblot analysis of nuclear p53 was also performed to determine whether these drugs induced the production of p53. Equal amounts of protein extracts from each cell line before and after treatment were used for this analysis.

H226Br = assay: Cell viability, trypan blue cell count assay; type: cell-based; settings: Homo sapiens, H226Br (lung, R254), 100% = untreated cells
Experimental: as §1, §3

H460 [5] = assay: Cell viability, trypan blue cell count assay; type: cell-based; settings: Homo sapiens, NCI-H460, H460 (lung, wild-type p53), 100% = untreated cells
Experimental: as §1, §3

HT1080 = assay: Cell viability, trypan blue cell count assay; type: cell-based; settings: Homo sapiens, HT-1080, HT1080 (fibrosarcoma, wild-type p53), 100% = untreated cells
Experimental: as §1, §3

MCF-7 = assay: Cell viability, trypan blue cell count assay; type: cell-based; settings: Homo sapiens, MCF7, MCF-7 (breast, wild-type p53), 100% = untreated cells
Experimental: as §1, §3

H1299 = assay: Cell viability, trypan blue cell count assay; type: cell-based; settings: Homo sapiens, NCI-H1299, H1299 (lung, p53 deleted), 100% = untreated cells
Experimental: as §1, §3

Hep 3B = assay: Cell viability, trypan blue cell count assay; type: cell-based; settings: Homo sapiens, Hep3B, Hep 3B (liver, p53 deleted), 100% = untreated cells
Experimental: as §1, §3

SK-OV-433 = assay: Cell viability, trypan blue cell count assay; type: cell-based; settings: Homo sapiens, SK-OV-433 (ovarian, wild-type p53), 100% = untreated cells
Experimental: as §1, §3

H549 = assay: Cell viability, trypan blue cell count assay; type: cell-based; settings: Homo sapiens, H549 (lung, wild-type p53), 100% = untreated cells
Experimental: as §1, §3

H358 [6] = assay: Cell viability, trypan blue cell count assay; type: cell-based; settings: Homo sapiens, NCI-H358, H358 (lung, p53 deleted), 100% = untreated cells
Experimental: as §1, §3

HeLa = assay: Cell viability, trypan blue cell count assay; type: cell-based; settings: Homo sapiens, HeLa (cervical, wild-type p53 inactivated by E6), 100% = untreated cells
Experimental: as §1, §3

| Structure (SMILES) | viability at 0.05 µg/mL (Saos-2) [%] | IC50 (H596 [1]) [nM] | IC50 (H460 [2]) [nM] | IC50 (H322) [nM] | IC50 (A549) [nM] | IC50 (HeLa (p53 inactivated)) [nM] | IC50 (H358 [3]) [nM] | effect on half-life of the p53 protein (p53 protein) | viability (H596 [4]; NCI-H596, read-out: % Cell Viability) [%] | viability at 0.05 µg/mL (H226Br) [%] | viability at 0.05 µg/mL (H460 [5]) [%] | viability at 0.05 µg/mL (HT1080) [%] | viability at 0.05 µg/mL (MCF-7) [%] | viability at 0.05 µg/mL (H1299) [%] | viability at 0.05 µg/mL (Hep 3B) [%] | viability at 0.05 µg/mL (SK-OV-433) [%] | viability at 0.05 µg/mL (H549) [%] | viability at 0.05 µg/mL (H358 [6]) [%] | viability at 0.05 µg/mL (HeLa) [%] | viability (H596 [4]; NCI-H596, H596 (lung, R245C), 100% = untreated cells, read-out: % Cell Viability) [%] |
| --- | --- | --- | --- | --- | --- | --- | --- | --- | --- | --- | --- | --- | --- | --- | --- | --- | --- | --- | --- | --- |
| COC(=O)Nc1nc2ccc(Sc3ccccc3)cc2[nH]1 [Fenbendazole, methy 5-(phenylthio)-2-benzimidazole-2-carbamate] | 76.5 ± 5.9 | 643 | 152 | 816 | 123 | 853 | 654 | prolong the half-life | 86.7 ± 11.5 | 80.1 ± 11.1 | 39.2 ± 6.4 | 54.5 ± 12 | 43.9 ± 7.3 | 89.2 ± 1.1 | 79.5 ± 12.5 | 52.5 ± 13.2 | 46.4 ± 13.3 | 88.3 ± 17.8 | 93.6 ± 7.4 | – |
| COC(=O)Nc1nc2ccc(C(=O)c3ccccc3)cc2[nH]1 [Mebendazole, Methyl 5-benzoylbenzimidazole-2-carbamate] | 65.4 ± 10.1 | 601 | 106 | 871 | 130 | 400 | 893 | prolong the half-life | – | 64.24 ± 0.2 | 25.2 ± 7.6 | 44.5 ± 7.7 | 24.3 ± 8.4 | 89.2 ± 4.3 | 83.2 ± 1.5 | 28.1 ± 6.1 | 39.2 ± 10.7 | 73.5 ± 1.8 | 92.4 ± 6.27 | 86.2 ± 8 |
